# Paper PMC9200803, “Design, synthesis, and biological evaluation of tetrahydroquinolinones and tetrahydroquinolines with anticancer activity” (Scientific Reports, 2022)
# Experiments:
# Assay type in all cases: cell-based, human
# HCT-116 cells [1] = experiment: MTT cell viability assay, HCT-116; details: for IC50: MTT, 72 h, IC50 ± SD
# Protocol: (§1) To evaluate the effects of the newly synthesized tetrahydroquinolin-2(1H)-one derivatives on cell viability, we treated human colon cancer cells HCT-116, human breast cancer cells MCF-7, and human non-small cell lung cancer cells A-549 with different concentrations of the compounds for 72 h. After incubation, the MTT (3-(4,5-dimethylthiazol-2-yl)-2,5-diphenyltetrazolium bromide) assay was performed and the cytotoxic potency of compounds (expressed in IC50) on the cells was determined in comparison to control cells treated with 1% of dimethyl sulfoxide (DMSO) (Table 1). […] We also compared the activity of 20d and 19b to the reference control drug Cisplatin, which is widely used in chemotherapy.
# (§2) A-549 (CCL-185) and MCF-7 ([…]) cells were cultured in RPMI-1640 medium, while HCT-116 (CVCL-427), (hMLH1)-deficient (MMR^–) and hMLH1-proficient (MMR^+) RKO cells were cultured in McCoy’s 5A medium. The culture media were supplemented with 10% fetal bovine serum, 2 mM L-glutamine, and antibiotics (penicillin 62.6 µg/ml and streptomycin 40 µg/ml). Cultivation of cell lines was carried out at 37 °C under a humidified atmosphere containing 5% CO2, and the cultures were routinely screened for Mycoplasma contamination. A-549, MCF-7, and HCT-116 cells were obtained from American Type Culture Collection (ATCC), while RKO colon carcinoma cells were a kind gift of Dr Timothy Kinsella (Brown University, USA).
# (§3) The viability of cells was determined in response to the newly synthesized compounds using the MTT (Sigma-Aldrich) assay. Briefly, cells were seeded into 96-well plates and allowed to attach overnight. Then, cells were exposed to various concentrations of compounds for 24, 48 or 72 h. Negative controls were treated with the same amount of DMSO solvent (1%). After treatment, the MTT solution (0.4 mg/ml) was added to each well and allowed to react with cells for 2–3 h at 37 °C. Next, the medium was removed, the formazan product formed was dissolved in 100 μl of DMSO, and the absorbance was determined at 540 nm using an ASYS UVM340 microplate reader (Biochrom Ltd.). The IC50 value, which represents the concentration of the compound required to inhibit cell growth by 50% compared to vehicle, was calculated using GraphPad Prism 8 software based on the curves plotting survival against dose averaged from at least three independent experiments.
# MCF-7 cells = experiment: MTT cell viability assay, MCF-7; details: Homo sapiens, MCF7, 72 h, IC50 ± SD
# Protocol: as §1, §2, §3
# HCT-116 cells [2] = experiment: Cell cycle distribution analysis by flow cytometry (PI staining); details: HCT-116, 24 to 72 h, vs vehicle
# Protocol: Based on their antiproliferative activity, 20d and 19b were evaluated for their effect on cell cycle phase distribution and DNA content by flow cytometry.
# HCT-116 and A-549 cells were seeded into culture plates and allowed to attach overnight. Then, cells were incubated with the investigated compounds for the indicated time points. After incubation, the harvested cells were fixed with ice-cold 75% ethanol and stored overnight at − 20 °C. Next, cells were rehydrated with PBS in ice for 15 min and washed twice in PBS. Finally, cells were stained with […] propidium iodide (PI) and […] RNase A in PBS for 30 min at room temperature. Cell cycle distribution was determined using a Guava easyCyte 8 flow cytometer (Merck Millipore) and FlowJo v10 software.
structure (smiles),measurement,setting,value
"O=C(Nc1cccc(F)c1)OC1CCCc2c(-c3ccccc3)cc(=O)[nH]c21 (stereo not drawn) [Compound 20d, (2-oxo-4-phenyl-5,6,7,8-tetrahydroquinolin-8-yl) N-(3-fluorophenyl)carbamate]",cytotoxic effect after 24 h and 48 h exposure,"HCT-116 cells [1]; HCT-116, 10 and 20 µM",slight cytotoxic effect
same,IC50,"HCT-116 cells [1]; Homo sapiens, HCT-116, 72 h",~13 µM
same,IC50,HCT-116 cells [1],12 ± 0.57 µM
same,IC50,MCF-7 cells,> 50 µM
same,increase in the number of cells in the G0/G1 phase,HCT-116 cells [2],< 14%
same,number of cells in the S-phase,HCT-116 cells [2],substantial decrease
